Patent publication US10336757B2, “Treatment of neurodegenerative diseases through inhibition of HSP90” (Sloan-Kettering Institute for Cancer Research, priority 2006, dated 2019)
Where “and” joins values, the source holds several entries; their conditions need not be identical. Equal entries are not always repeated.

How the values were obtained:
[1] = system: mTau expression and phosphorylation, p35; experiment: 30 day Hsp90 inhibitor treatment of JNPL3 mice; assay type: in vivo; conditions: 30 days
Experimental: JNPL3 female mice 6.5 months of age were treated for 30 days, 5 day/week, with the Hsp90 inhibitor PU-DZ8 (FIG. 5) or vehicle, or sacrificed for time zero, n=4/group. Brains were divided in subcortical and cortical regions and processed using the Greenberg and Davies extraction protocol. (77) Sarkosyl soluble fractions (S1) were analyzed by WB for p35 and Hsp70, and for tau epitopes found abnormally hyperphosphorylated in AD brains such as: 5202 and T205 recognized by ATB, T181 by AT270, T231 by AT180. These are putative cdk5/p35 sites. Protein bands were normalized to Hsp90 and plotted as relative units. […].
To investigate whether modulation of mTau could be sustained over a longer Hsp90 inhibitor-treatment period, without being toxic to mice, JNPL3 mice were subjected for 30 days to these agents. Female JNPL3 mice 6.5 months of age (n=10) were administered i.p. vehicle (n=5) or one of the Hsp90 inhibitors, PU24FC1 (200 mg/kg) or PU-DZ8 (75 mg/kg) (n=5), on a daily, five-times per week schedule and animals were sacrificed at 8 h following the last administered dose of inhibitor. […] Furthermore, no visible internal organ damage was detected at sacrifice upon gross inspection. Both S1 and P3 fractions extracted from the subcortical brain region of these mice were analyzed for mTau expression and phosphorylation.

[2] = cited from earlier work
[3] = system: mutant tau (HT7), p35, cdk5, Hsp70; experiment: One dose PU-DZ8 in JNPL3 mice, S1 and P3 brain fractions by Western blot; assay type: in vivo, mouse; conditions: for soluble mutant tau (HT7), S1 fraction, subcortical brain region: from 4 h, maintained up to 36 h
Experimental: JNPL3 female mice 6 months of age were treated IP with the Hsp90 inhibitor PU-DZ8 (75 mg/kg) and sacrificed various times as indicated in FIG. 9. Brains were divided in subcortical and cortical regions and processed using the Greenberg and Davies extraction protocol (77). Sarkosyl soluble fractions (S1) extracted from the subcortical region were analyzed by WB for p35, cdk5, mutant tau (HT7), Hsp90 and Hsp70. Protein bands were normalized to actin and plotted as relative change from untreated mice.
To investigate whether the human TauP301L present in the JNPL3 line of mice is a sensitive target for Hsp90 inhibition, animals were treated with the brain-barrier permeable Hsp90 inhibitor PU-DZ8. This agent is a higher-potency water soluble derivative of PU24FC1 (EC50JNPL3 brain Hsp90=70 nM). One dose of PU-DZ8 (75 mg/kg) was administered intraperitoneally (i.p.) to female mice of 2.5-4 months in age (n=32) and animals were sacrificed in the interval of 0 to 36 h. Both aggregate-free Tau (S1) and insoluble Tau (P3) fractions were prepared from the subcortical and cortical regions of these mice. Human Tau levels were assessed by immunobloting with a human specific anti-Tau antibody (HT-7). […] We next examined in a 4- to 6-month old mouse group (n=15) whether the stability of mTau as present in tau aggregates (P3 fraction) was additionally regulated by Hsp90.
For experiments designed to test the kinetics of mTau and p35 modulation by Hsp90 inhibitors, animals were administered intraperitoneally (i.p.) 75 mg/kg PU-DZ8 in PBS (6% DMSO). Mice were sacrificed by CO2 euthanasia at the indicated times following PU-DZ8 administration. Hemibrains were separated into cortico-limbic (cortex, amygdale and hippocampus) and subcortical (basal ganglia, diencephalon, brain stem and cerebellum) regions, quickly frozen on dry ice and stored at −80° C. and processed. In summary, each brain piece was weighed and homogenized in three volumes of Tris-buffered saline (TBS) containing protease and phosphatase inhibitors (25 mM Tris-HCl, pH 7.4, 150 mM NaCl, 1 mM EDTA, 1 mM EGTA, 5 mM sodium pyrophosphate, 30 mM β-glycerophosphate, 30 mM sodium fluoride, 1 mM phenylmethylsulfonyl fluoride (PMSF)). The homogenates were centrifuged at 27,000 g for 15 min at 4° C. Supernatants were collected as S1 fractions, and the pellets (P1) were re-homogenized in three volumes of salt/sucrose buffer (0.8 M NaCl, 10% sucrose, 10 mM Tris/HCl, pH 7.4, 1 mM EGTA, 1 mM PMSF) and centrifuged as above. The resulting pellets were discarded and the supernatants were incubated with sarkosyl (Sigma, St Louis, Mo., USA; 1% final concentration) for 1 h at 37° C. The sarkosyl mixtures were then centrifuged at 150,000 g for 30 min at 4° C. The supernatants (S2 fraction) were collected, and the pellets (P3) were resuspended in 50 μL 2% SDS in TBS and stored at −80° C. for western blotting. Proteins were analyzed by Western blot.

[4] = Assessment of PU-DZ8 brain levels by HPLC/MS/MS; assay type: in vivo, mouse; conditions: 75 mg/kg i.p.
Experimental: Assessment of PU-DZ8 brain levels. Concentrations of compound were determined and quantitated by a MRM mode using a tandem high-performance liquid chromatography-mass/mass spectrometry (HPLC/MS/MS). A weighed piece of brain was rinsed with saline isotonic solution, dried with gauze and then homogenized in mobile phase (acetonitrile (ACN)/0.1% formic acid=1.2/2.8, v/v). Haloperidol was added as internal standard. PU-DZ8 was extracted in methylene chloride, the organic layer was separated, speedily dried under vacuum and reconstituted in the mobile phase. Compound analysis was performed in the API 4000™ LC/MS/MS (Applied Biosystems) which was coupled with a Shimadzu LC system and a 96-well plate autosampler. A Gemini C18 column (5μ particle size, 50×4.6 mm I.D.) was used for the LC separation. The analyte was eluted under an isocratic condition for 4 min at a flow rate of 0.4 mL/min
One dose of PU-DZ8 (75 mg/kg) was administered intraperitoneally (i.p.) to female mice of 2.5-4 months in age (n=32) and animals were sacrificed in the interval of 0 to 36 h. Both aggregate-free Tau (S1) and insoluble Tau (P3) fractions were prepared from the subcortical and cortical regions of these mice. PU-DZ8 levels in the brain reached 0.35 μg/g (˜700 nM) at 4 h, and the pharmacologically relevant dose was retained for at least 12 h post-administration (0.2 μg/g, ˜390 nM).

## CC(C)NCCCn1c(Cc2cc3c(cc2I)OCO3)nc2c(N)nc(F)nc21 [PU-DZ8]
[1]; five-times per week i.p., PU24FC1 200 mg/kg or PU-DZ8 75 mg/kg
  toxicity (animal weight, fur appearance, appetite, posture): No toxicity was observed
[1]; subcortical brain region
  Tau expression and phosphorylation in S1 and P3 fractions: significant reduction in Tau expression and phosphorylation
  p35 in S1 fraction: p35 reduction
[2]
  solubility: water soluble
[3]; one dose 75 mg/kg IP
  chaperone levels (hsp70): hsp70 increase
[3]; one dose 75 mg/kg i.p.
  cdk5 expression: No significant changes
  expressions of Akt and Raf-1: not altered
  soluble mutant tau (HT7), S1 fraction, subcortical brain region: significant decrease
[3]; one dose 75 mg/kg i.p., 4- to 6-month old mice
  insoluble and hyperphosphorylated Tau (P3 fraction): significant reduction
[3]; one dose 75 mg/kg i.p., listed as DZ8
  soluble mutant tau (HT7), S1 fraction, subcortical brain region: degradation of the mutant protein
[4]; 12 h post-administration
  levels in the brain: 0.2 μg/g and ~390 nM
[4]; at 4 h
  levels in the brain: 0.35 μg/g and ~700 nM
